Reference: US20100240709A1, “Sulfoximine Derivatives as p38 MAP Kinase Inhibitors” (priority 2005, published 2010)
Values belong to the molecule of their own block, whether it stands above or below them.

Legend:
TNF α [1] = test: In vivo LPS induced TNF α inhibition in Balb/c mice; conditions: 10 mg/kg orally, 30 minutes prior to i.v. LPS (50 μg/kg); blood 60 minutes after LPS
Experimental: Balb/c mice were kept for acclimatization in the observation room for two days before the experiment. On the day of the experiment, animals were weighed and the test compounds to be administered calculated at a 10 mg/kg body weight basis in a total volume of 2 ml. Control groups received vehicle alone while the treatment groups received the test compound, both given orally, 30 minutes prior to intravenous injection of LPS (50 μg/kg). Blood was collected 60 minutes after the LPS injection from retro orbital plexus, the serum separated & stored in deep freeze till the estimation of TNF by ELISA method.

TNF α [2] = test: Ex-vivo human whole blood, LPS-induced TNF-α by ELISA; type: cell-based; conditions: LPS 1 ng/ml; for inhibition at 10 µM / inhibition at 100 µM: Homo sapiens
Experimental: (§1) Blood was collected by venous puncture from 3 different volunteers in separate heparinized (100 IU/ml) tubes and incubated in the presence of 10 μM and 100 μM of test compounds for 1 hr at 37° C. Following this LPS (1 ng/ml final concentration) was added and incubation continued for 5 hr. The reaction was terminated by placing the samples on ice for 10 min. The samples were then centrifuged, plasma separated and stored at −70° C. until the analysis of TNF-α and IL-1β by ELISA: […]

IL-1 β = test: Ex-vivo human whole blood, LPS-induced IL-1β by ELISA; type: cell-based; conditions: LPS 1 ng/ml; for inhibition at 10 µM / inhibition at 100 µM: Homo sapiens
Experimental: as §1

p38 MAP kinase = p38 MAP kinase (Homo sapiens, UniProt Q16539); test: p-38 MAPK Enzyme assay (in vitro ELISA, ATF-2 substrate); type: biochemical; conditions: ELISA detection of phosphorylated ATF-2
p38 MAP kinase, sequence (Q16539 whole entry): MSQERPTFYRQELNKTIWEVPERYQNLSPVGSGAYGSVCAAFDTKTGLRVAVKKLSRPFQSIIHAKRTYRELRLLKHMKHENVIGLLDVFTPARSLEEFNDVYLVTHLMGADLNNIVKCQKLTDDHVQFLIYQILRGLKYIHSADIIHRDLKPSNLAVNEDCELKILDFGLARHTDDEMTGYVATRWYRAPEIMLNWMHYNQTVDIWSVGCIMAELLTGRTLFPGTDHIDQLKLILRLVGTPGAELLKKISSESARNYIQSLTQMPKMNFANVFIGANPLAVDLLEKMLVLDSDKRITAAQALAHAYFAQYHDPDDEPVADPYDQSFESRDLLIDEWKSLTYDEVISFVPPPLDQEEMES
Description: The compounds were screened using an in vitro ELISA assay for p38 MAP kinase activity. Activated p38 MAP kinase during the course of its biological function phosphorylates its substrates. The assay was based on the detection of a phosphorylated p38 MAP kinase substrate using ATF-2 as the biological substrate. More the activity of the p38 MAP kinase inhibitor in the reaction mixture less will be the amount of active p38 MAP kinase available to phosphorylate ATF-2. So, lower OD value will indicate the higher inhibition of p38 MAP kinase by the specific p38 MAP kinase inhibitor. The quantitation of phosphorylated ATF-2 at varying concentrations of p38 MAP kinase inhibitor was used to determine the IC50 by fitting the results to a logistic dose-response program (Graphpad Prism, CA). IC50 was defined as the concentration of compound required to achieve 50% inhibition of p38 MAP kinase activity.

- IC50 (p38 MAP kinase): 71 µM
Compound: CCc1nc(-c2ccc(F)cc2)c(-c2ccnc(N=S(C)(=O)c3ccc(F)cc3)c2)s1 (single isomer, unassigned; (-)) [Example 43, (−)-S-Methyl-S-4-fluoro-phenyl-N-[4-(2-ethyl-4-(4-fluoro-phenyl)-1,3-thiazol-5-yl)-pyridine-2-yl]-sulfoximine]
- In vivo LPS induced TNF α inhibition in Balb/c mice TNF α % inhibition (10 mg/kg) (TNF α [1]): 49.4%
- TNF α % inhibition (TNF α [2]; Conc 100 μM): 55.14%
- inhibition at 10 µM (TNF α [2]; Conc 10 μM): 17.8%
- IL-1 β % inhibition (IL-1 β; Conc 10 μM): 24.62%
- inhibition at 100 µM (IL-1 β; Conc 100 μM): 79.3%

- IC50 (p38 MAP kinase): 9.8 µM
Compound: CCc1nc(-c2ccccc2)c(-c2ccnc(N=S(C)(=O)c3cccc(C)c3)c2)s1 (stereo not drawn) [Example 24, S-Methyl-S-(3-Methylphenyl)-N-[4-{2-ethyl-4-phenyl-thiazol-5-yl}-pyridine]-sulfoximine]
- In vivo LPS induced TNF α inhibition in Balb/c mice TNF α % inhibition (10 mg/kg) (TNF α [1]): 39.3%
- inhibition at 10 µM (TNF α [2]; Conc 10 μM): 7.43%
- inhibition at 100 µM (TNF α [2]; Conc 100 μM): 69.7%
- inhibition at 10 µM (IL-1 β; Conc 10 μM): 22.7%
- inhibition at 100 µM (IL-1 β; Conc 100 μM): 81.2%

- IC50 (p38 MAP kinase): 4.4 µM
Compound: CCc1nc(-c2cccc(F)c2)c(-c2ccnc(N=S(C)(=O)c3ccccc3)c2)s1 (stereo not shown) [Example 50, S-Methyl-S-phenyl-N-[4-(2-ethyl-4-(3-fluoro-phenyl)-1,3-thiazol-5-yl)-pyridine-2-yl]-sulfoximine]

- IC50 (p38 MAP kinase): 4.8 µM
Compound: CCc1nc(-c2cccc(C(F)(F)F)c2)c(-c2ccnc(N=S(C)(=O)c3ccccc3)c2)s1 (stereo not shown) [Example 54, S-Methyl-S-phenyl-N-{4-[2-ethyl-4-(3-trifluoromethylphenyl)-thiazol-5-yl]-pyridin-2-yl}sulfoximine]

- IC50 (p38 MAP kinase): 1 µM
Compound: CCc1nc(-c2ccc(F)c(F)c2)c(-c2ccnc(N=S(C)(=O)c3ccccc3)c2)s1 (stereo not shown) [Example 58, S-Methyl-S-phenyl-N-{4-[2-ethyl-4-(3,4-difluorophenyl)-thiazol-5-yl]pyridin-2-yl}-sulfoximine]

- IC50 (p38 MAP kinase): 6.6 µM
Compound: CCc1nc(-c2ccc(F)c(F)c2)c(-c2ccnc(N=S(C)(=O)c3ccc(F)cc3)c2)s1 (stereo not drawn) [Example 59, S-Methyl-S-(4-fluorophenyl)-N-{-4-[2-ethyl-4-(3,4-difluorophenyl)-thiazol-5-yl]pyridin-2-yl}-sulfoximine]

- IC50 (p38 MAP kinase): 11.8 µM
Compound: CCc1nc(-c2ccc(F)c(F)c2)c(-c2ccnc(N=S(=O)(c3ccccc3)C(C)C)c2)s1 (stereo not shown) [Example 60, S-Isopropyl-S-phenyl-N-{4-[2-ethyl-4-(3,4-difluorophenyl)-thiazol-5-yl]-pyridin-2-yl}-sulfoximine]
- In vivo LPS induced TNF α inhibition in Balb/c mice TNF α % inhibition (10 mg/kg) (TNF α [1]): 53.65%
- inhibition at 10 µM (TNF α [2]; Conc 10 μM): 36.7%
- inhibition at 100 µM (TNF α [2]; Conc 100 μM): 81.7%
- inhibition at 10 µM (IL-1 β; Conc 10 μM): 35.2%
- inhibition at 100 µM (IL-1 β; Conc 100 μM): 84.5%

- IC50 (p38 MAP kinase): 9.4 µM
Compound: CCc1nc(-c2ccc(C)cc2)c(-c2ccnc(N=S(C)(=O)c3ccccc3)c2)s1 (stereo not shown) [Example 64, S-Methyl-S-phenyl-N-{4-[2-ethyl-4-p-tolyl-thiazol-5-yl]-pyridin-2-yl}-sulfoximine]

The remaining lines, values behind:

Compound: CCc1nc(-c2ccc(F)cc2)c(-c2ccnc(N=S(C)(=O)c3ccc(F)cc3)c2)s1 (single isomer, unassigned; (+)) [Example 44, (+)-S-Methyl-S-4-fluoro-phenyl-N-[4-(2-ethyl-4-(4-fluoro-phenyl)-1,3-thiazol-5-yl)-pyridine-2-yl]-sulfoximine]
- In vivo LPS induced TNF α inhibition in Balb/c mice TNF α % inhibition (10 mg/kg) (TNF α [1]): 50.4%
- TNF α % inhibition (TNF α [2]; Conc 10 μM): 32.74%
- TNF α % inhibition (TNF α [2]; Conc 100 μM): 95.59%
- IL-1 β % inhibition (IL-1 β; Conc 10 μM): 64.82%
- IL-1 β % inhibition (IL-1 β; Conc 100 μM): 92.36%
- IC50 (p38 MAP kinase): 6.6 µM

Compound: CCc1nc(-c2ccc(F)cc2)c(-c2ccnc(N=S(=O)(c3ccccc3)C(C)C)c2)s1 (single isomer, unassigned; (-)) [Example 36, (−)-Isopropyl-S-phenyl-N-{4-[2-ethyl-4-(4-fluoro-phenyl)-thiazol-5-yl]-pyridin-2-yl}-sulfoximine]
- In vivo LPS induced TNF α inhibition in Balb/c mice TNF α % inhibition (10 mg/kg) (TNF α [1]): 43.3%
- inhibition at 10 µM (TNF α [2]; Conc 10 μM): 34.3%
- inhibition at 100 µM (TNF α [2]; Conc 100 μM): 97.7%
- inhibition at 10 µM (IL-1 β; Conc 10 μM): 38.9%
- inhibition at 100 µM (IL-1 β; Conc 100 μM): 96.3%
- IC50 (p38 MAP kinase): 13.4 µM

Compound: CCc1nc(-c2ccccc2)c(-c2ccnc(N=S(C)(=O)c3cccc(F)c3)c2)s1 (stereo not drawn) [Example 25, S-Methyl-S-(3-fluorophenyl)-N-[4-{2-ethyl-4-phenyl-thiazol-5-yl}-pyridine]-sulfoximine]
- In vivo LPS induced TNF α inhibition in Balb/c mice TNF α % inhibition (10 mg/kg) (TNF α [1]): 59.6%
- TNF α % inhibition (TNF α [2]; Conc 10 μM): 15.39%
- TNF α % inhibition (TNF α [2]; Conc 100 μM): 64.06%
- IL-1 β % inhibition (IL-1 β; Conc 10 μM): 38.5%
- IL-1 β % inhibition (IL-1 β; Conc 100 μM): 79.4%

Compound: CCc1nc(-c2ccc(F)cc2)c(-c2ccnc(N=S(=O)(c3ccccc3)c3ccccc3)c2)s1 [Example 45, S,S-Diphenyl-N-[4-(2-ethyl-4-(4-fluorophenyl)-thiazol-5-yl)-pyridin-2-yl]-sulfoximine]
- IC50 (p38 MAP kinase): 1.35 µM

Compound: CCc1nc(-c2ccc(F)cc2)c(-c2ccnc(N=S(C)(=O)c3cccc(C)c3)c2)s1 (stereo not shown) [Example 46, S-Methyl-S-3-methylphenyl-N-[4-(2-ethyl-4-fluorophenyl-thiazol-5-yl)-pyridine]-sulfoximine]
- In vivo LPS induced TNF α inhibition in Balb/c mice TNF α % inhibition (10 mg/kg) (TNF α [1]): 56.80%
- TNF α % inhibition (TNF α [2]; Conc 10 μM): 40.9%
- TNF α % inhibition (TNF α [2]; Conc 100 μM): 90.1%
- IL-1 β % inhibition (IL-1 β; Conc 10 μM): 73.3%
- IL-1 β % inhibition (IL-1 β; Conc 100 μM): 95.8%

Compound: CCc1nc(-c2ccc(F)cc2)c(-c2ccnc(N=S(C)(=O)c3cccc(F)c3)c2)s1 (stereo not shown) [Example 47, S-Methyl-S-3-fluorophenyl-N-[4-{2-ethyl-4-(4-fluorophenyl)-thiazol-5-yl}-pyridine-2-yl]-sulfoximine]
- In vivo LPS induced TNF α inhibition in Balb/c mice TNF α % inhibition (10 mg/kg) (TNF α [1]): 48.60%
- inhibition at 10 µM (TNF α [2]; Conc 10 μM): 24.4%
- inhibition at 100 µM (TNF α [2]; Conc 100 μM): 89.6%
- inhibition at 10 µM (IL-1 β; Conc 10 μM): 78.1%
- inhibition at 100 µM (IL-1 β; Conc 100 μM): 98.5%

Compound: CCc1nc(-c2cccc3ccccc23)c(-c2ccnc(N=S(C)(=O)c3ccccc3)c2)s1 (stereo not shown) [Example 53, S-Methyl-S-phenyl-N-{4-[2-ethyl-4-napthalene-1-yl-thiazol-5-yl]-pyridin-2-yl}-sulfoximine]
- IC50 (p38 MAP kinase): 1.9 µM

Compound: Cc1cccc(-c2nc(-c3ccc([S+](C)[O-])cc3)sc2-c2ccnc(N=S(C)(=O)c3ccccc3)c2)c1 (stereo not shown) [Example 57, S-Methyl-S-phenyl-N-{-4-[2-(4-methylsulfinyl-phenyl)-4-m-tolyl-thiazol-5-yl]-pyridin-2-yl}-sulfoximine]
- IC50 (p38 MAP kinase): 6.5 µM

Compound: O=S(=Nc1cc(-c2scnc2-c2cccc(F)c2)ccn1)(c1ccccc1)C1CCCC1 (stereo not shown) [Example 70]
- IC50 (p38 MAP kinase): 8.2 µM

Compound: CS(=O)(=Nc1cc(-c2scnc2-c2cccc(F)c2)ccn1)c1ccccc1 (stereo not shown) [Example 71]
- IC50 (p38 MAP kinase): 25.5 µM

Compound: CC(C)S(=O)(=Nc1cc(-c2scnc2-c2cccc(F)c2)ccn1)c1ccccc1 (stereo not shown) [Example 72]
- IC50 (p38 MAP kinase): 3.9 µM

Compound: CC(C)S(=O)(=Nc1cc(-c2scnc2-c2ccc(F)cc2)ccn1)c1ccccc1 (stereo not shown) [Example 74]
- IC50 (p38 MAP kinase): 7.5 µM

Compound: O=S(=Nc1cc(-c2scnc2-c2ccc(F)cc2)ccn1)(c1ccccc1)C1CCCC1 (stereo not shown) [Example 75]
- IC50 (p38 MAP kinase): 12.6 µM
